What all share (type): cell-based, human
For experiment [1], the system named is M14 cells. Put plainly: Cell cycle analysis by flow cytometry, M14. Conditions: 20 nM, eight days. As to the method: A total of 1 × 10^4 M14 cells and 1 × 10^4 SK-MEL-5 cells were seeded into 10 cm culture dishes. Twenty-four hours later, cells were treated in replicates of N = 3, with Dxr2-017 at 20 nM for M14 and 50 nM for SK-MEL-5, or vehicle for controls for a total of eight days, with replacement of media, along with Dxr2-017 or vehicle, at day five. Cells were then collected, filtered to obtain single-cell suspensions, equal numbers of cells were fixed in 1 mL of 70% ethanol at 4 °C for 1 h, washed with PBS, and resuspended in 1 mL of Telford reagent (1 mM EDTA disodium salt, 2.5 U/mL RNAse A, 75 µM Propidium Iodide, and 0.1% Triton X-100 in PBS), and then incubated at 4 °C overnight. Cells were analyzed by flow cytometry (FACSCalibur analyzer, BD Biosciences). Cells were gated on forward scatter (FSC) versus side scatter (SCC) to remove debris, followed by gating of single cells using PI (FL2)-Area versus PI (FL2)-Width. Cell cycle analysis was performed on the PI (FL2)-Area parameter, and the percentages of cells within G0/G1, S, and G2/M phases were determined using Modfit LT 4.0.5.
(In general: In flow cytometry, cells or beads pass a laser one at a time.)

Experiment [2] concerns cleaved caspase 3. Put plainly: Western blot for cleaved caspase 3, M14. Conditions: up to 10 µM, three days. As to the method:
(§1) After treatment of M14 and SK-MEL-5 cells with different concentrations of Dxr2-017 or vehicle for 3 or 8 days, as denoted, cell images were captured at 20X in a transmitted light channel using the EVOS™ M5000 Imaging System (Invitrogen (Waltham, MA, USA)). Western blots were performed as previously described by us. Briefly, cells were collected and lysed using RIPA lysis buffer (25 mM Tris-HCl pH 7.6, 150 mM NaCl, 1% NP-40, 1% sodium deoxycholate, and 0.1% SDS; Thermo Scientific^TM (Waltham, MA, USA), #89900), supplemented with protease and phosphatase inhibitor cocktail (Thermo Scientific^TM, #78442) and 1 mM of PMSF. Resultant Western blots were probed using antibodies against cleaved caspase 3 (Cell Signaling Technology (Danvers, MA, USA), #9664), pan-cadherin (Cell Signaling Technology, #4068), and β-actin (Santa Cruz (Santa Cruz, CA, USA), #sc-47778).
We then assessed whether Dxr2-017 induced apoptosis. We treated M14 and SK-MEL-5 cells with Dxr2-017 for three days at concentrations of up 10 and 20 µM, respectively, and measured cleaved caspase 3 using Western blot. […] In this assay, cells were grown in six-well plates and washed prior to lysis, and thus only adherent cells remained. […] Adherent cells are spread out and fusiform shaped, while detached/floating cells are round, as previously reported by us. […]
A general note: Immunoblotting shows a protein as a band on a membrane.

The test system of experiment [3] is pan-cadherin. Put plainly: Western blot for pan-cadherin, SK-MEL-5. The method, then:
as §1
These findings led us to compare cleaved caspase 3 between adherent cells and floating cells. Cleaved caspase 3 is an indicator of programmed cell death, and its triggering by loss of cell attachment is an established means of detecting anoikis. Adherent cells were prepared as above. […]

The test system of experiment [4] is SK-MEL-5 cells. Put plainly: Adherent versus floating cell quantification from images, SK-MEL-5. Conditions: 20 µM, 3-day treatment, mean ± SEM (N = 4), controls 19.5 ± 3.2%. As to the method: as §1, with “Resultant Western blots were probed using antibodies against cleaved caspase 3 (Cell Signaling Technology (Danvers, MA, USA), #9664), pan-cadherin (Cell Signaling Technology, #4068), and β-actin (Santa Cruz (Santa Cruz, CA, USA), #sc-47778).” left out
Figure 8 Dxr2-017 inhibits melanoma cell growth through induction of anoikis. […] Data are expressed as the percent of untreated control and are the mean ± SEM of three separate experiments. […] M14 and SK-MEL-5 cells were treated for eight days with 20 nM and 50 nM of Dxr2-017, respectively, and the phase of the cell cycle was determined by flow cytometry. […] (D) Adherent and floating cells were quantified from captured images. Data are the mean ± SEM (N = 4), expressed as a percentage to total cells. * Denotes p-value ≤ 0.05 compared to respective floating or attached cells. […]
We then assessed whether Dxr2-017 induced apoptosis. […]

The structures appear in SMILES notation. “Also recorded” adds a separate entry of the source.

With `c1ccc2sc(-c3ccc(CNc4ccc5nnnn5n4)o3)nc2c1` [Dxr2-017], in experiment [1], the “effect on cell cycle parameters” value is “little-to-no change in cell cycle parameters”. In addition, in experiment [2], the “cleaved caspase 3, adherent and floating cells combined” value was “clear formation was observed”; the “cleaved caspase 3, adherent cells only” value was “did not see any induction of cleaved caspase 3; also recorded: no formation of cleaved caspase 3”. Also, in experiment [3], the cadherin expression result is reported as “decreased cadherin expression in a concentration-dependent manner”. In addition, in experiment [4], the “floating cell population, percentage to total cells” value came out at 60.8 ± 10.4%.

The values are drawn from publication PMC11429909, “Protein Structure Inspired Discovery of a Novel Inducer of Anoikis in Human Melanoma” (Cancers, 2024).
